Experimental findings from patent publication US9682940B2, “Indazole derivatives useful as CB-1 inverse agonists” (Janssen Pharmaceutica NV, priority 2015, dated 2017) are described below.

SMILES strings stand for the structures. Some results are limits rather than exact numbers.

In assay [1] the target is Human CB1R (Cannabanoid receptor 1) (Homo sapiens (Human), UniProt P21554). The assay is described as follows: CB-1 in vitro cAMP (HTRF) assay in HEK-293 cells. The following applies: HEK-293 cells stably transfected with human CB1R, 250 nM Forskolin, mean where tested more than once, read-out: CB-1 (HEK_cAMP) EC50. The format is cell-based. An outline of the steps:
(§1)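 HEK-293 cells stably expressing human CB1 or CB2 plated overnight, then tested in HBSS/5 mM HEPES/0.1% BSA with 0.5 mM IBMX and forskolin (1.5 μM working dilution). Intracellular cAMP quantified by competitive HTRF immunoassay (d2-cAMP, cryptate anti-cAMP) against a cAMP standard curve; compounds as 1/3 serial dilutions from 10 mM DMSO stocks.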

Assay [2] deals with Human CB2R (Cannabanoid receptor 2) (Homo sapiens (Human), UniProt P34972). The assay is described as follows: CB-2 in vitro cAMP (HTRF) assay in HEK-293 cells. The format is cell-based. The following applies: HEK-293 cells stably transfected with human CB2R, 250 nM Forskolin, mean where tested more than once, read-out: CB-2 (HEK_cAMP) EC50. A digest of the protocol:
as §1

Human CB1R (Cannabanoid receptor 1), sequence (P21554 whole entry): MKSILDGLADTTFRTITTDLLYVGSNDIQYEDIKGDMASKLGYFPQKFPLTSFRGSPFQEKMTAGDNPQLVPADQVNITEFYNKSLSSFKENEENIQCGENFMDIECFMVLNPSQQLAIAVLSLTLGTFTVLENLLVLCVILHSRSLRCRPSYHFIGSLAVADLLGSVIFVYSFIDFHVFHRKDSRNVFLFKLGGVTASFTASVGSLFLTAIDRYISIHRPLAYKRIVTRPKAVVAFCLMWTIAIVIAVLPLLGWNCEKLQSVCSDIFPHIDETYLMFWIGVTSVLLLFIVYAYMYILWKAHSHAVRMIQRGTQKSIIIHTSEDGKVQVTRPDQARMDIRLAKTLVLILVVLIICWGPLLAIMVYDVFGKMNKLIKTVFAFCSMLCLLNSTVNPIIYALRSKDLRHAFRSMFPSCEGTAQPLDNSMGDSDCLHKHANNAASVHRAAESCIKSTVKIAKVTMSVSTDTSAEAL
Human CB2R (Cannabanoid receptor 2), sequence (P34972 whole entry): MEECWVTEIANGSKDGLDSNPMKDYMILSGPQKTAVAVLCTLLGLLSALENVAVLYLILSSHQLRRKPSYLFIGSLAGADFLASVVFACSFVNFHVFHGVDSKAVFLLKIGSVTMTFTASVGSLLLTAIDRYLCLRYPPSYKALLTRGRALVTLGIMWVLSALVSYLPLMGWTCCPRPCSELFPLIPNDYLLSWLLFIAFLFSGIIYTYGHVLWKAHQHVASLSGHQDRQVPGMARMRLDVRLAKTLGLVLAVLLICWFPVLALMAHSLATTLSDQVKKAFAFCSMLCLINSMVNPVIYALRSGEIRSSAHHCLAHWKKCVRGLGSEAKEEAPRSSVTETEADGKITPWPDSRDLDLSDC

Turning to `O=C(O)c1cccc(S(=O)(=O)N2CCC(c3nn(CCO)c4ccc(C(c5ccc(Cl)cc5)c5ccc(Cl)cc5)cc34)CC2)c1` [Compound 68], the figures for the EC50 in assay [1] and in assay [2] were 85 nM and over 10000 nM, respectively.

Regarding `O=C(O)c1ccc(C(c2ccc(Cl)cc2)c2ccc3[nH]nc(C4CCN(S(=O)(=O)C(F)(F)F)CC4)c3c2)cn1` (centres unmarked) [Compound 241], the EC50 in assay [1] is 1630 nM; in assay [2], over 10000 nM.

For `COc1cccc(S(=O)(=O)N2CCC(Nc3n[nH]c4ccc(C(c5ccc(Cl)cc5)c5ccc(Cl)cc5)cc34)CC2)c1` [Compound 101], the EC50 in assay [1] is 293 nM; in assay [2], over 10000 nM.

Regarding `O=C(O)c1cccc(CN2CCC(c3nn(C4CC4)c4ccc(C(c5ccc(Cl)cc5)c5ccc(C(F)(F)F)cc5)cc34)CC2)c1` (centres unmarked) [Compound 248], the EC50 in assay [1] was 41 nM; in assay [2] it was over 10000 nM.

As for `O=C(NC1CCCC1)N1CCC(c2n[nH]c3ccc(C(c4ccc(Cl)cc4)c4ccc(Cl)cc4)cc23)CC1` [Compound 263], the EC50 in assay [1] was determined as 234 nM; in assay [2], 2330 nM.

Regarding `O=S(=O)(N1CCN(c2nn(CCO)c3ccc(C(c4ccc(Cl)cc4)c4ccc(Cl)cc4)cc23)CC1)C(F)(F)F` [Compound 42], the EC50 in assay [1] is 6 nM; in assay [2] it was over 10000 nM.

For `CC(C)(O)Cn1nc(C2CCN(S(=O)(=O)C(F)(F)F)CC2)c2cc(C(c3ccc(Cl)cc3)c3ccc(Cl)cc3)ccc21` [Compound 201], the EC50 in assay [1] was 2640 nM; in assay [2] it was over 10000 nM.

On to `O=C(O)CCS(=O)(=O)N1CCC(c2c3cc(C(c4ccc(Cl)cc4)c4ccc(Cl)cc4)ccc3nn2C2CC2)CC1` [Compound 133], for which the values for the EC50 in assay [1] and in assay [2] were 3910 nM and over 10000 nM, respectively.

With `NC(=O)c1cccc(N2CCC(c3n[nH]c4ccc(C(c5ccc(Cl)cc5)c5ccc(Cl)cc5)cc34)CC2)c1` [Compound 218], the EC50 in assay [1] is 265 nM; in assay [2], over 10000 nM.

Regarding `O=S(=O)(N1CCC(c2n[nH]c3ccc(C(c4ccc(Cl)cc4)C4CCCCC4)cc23)CC1)C(F)(F)F` (centres unmarked) [Compound 280], the EC50 is 565 nM in assay [1] and over 42000 nM in assay [2].

With `O=C(O)c1ccc(C(=O)N2CCC(c3nn(C4CC4)c4ccc(C(c5ccc(Cl)cc5)c5ccc(Cl)cc5)cc34)CC2)cc1` [Compound 99], the EC50 was 345 nM in assay [1] and over 10000 nM in assay [2].

Consider `O=C(Oc1ccccc1)N1CCC(c2n[nH]c3ccc(C(c4ccc(Cl)cc4)c4ccc(Cl)cc4)cc23)CC1` [Compound 267], for which the 50% effective concentration (EC50) in assay [1] is 79 nM; in assay [2] it was over 2000 nM.

For `COC(=O)c1cccc(S(=O)(=O)N2CCC(c3n[nH]c4ccc(C(c5ccc(Cl)cc5)c5ccc(Cl)cc5)cc34)CC2)c1` [Compound 60], the EC50 in assay [1] was 65 nM; in assay [2] it was over 10000 nM.

As for `COc1ccc(S(=O)(=O)N2CCC(Nc3n[nH]c4ccc(C(c5ccc(Cl)cc5)c5ccc(Cl)cc5)cc34)CC2)cc1` [Compound 119], the EC50 was 144 nM in assay [1] and over 10000 nM in assay [2].

Take `O=C(O)c1ccc(-n2nc(C3CCN(S(=O)(=O)C(F)(F)F)CC3)c3cc(C(c4ccc(Cl)cc4)c4ccc(Cl)cc4)ccc32)cc1` [Compound 204]: the results for the EC50 in assay [1] and in assay [2] were 19 nM and over 10000 nM, respectively.

Regarding `O=C(O)COc1ccc(N2CCC(c3nn(C4CC4)c4ccc(C(c5ccc(Cl)cc5)c5ccc(Cl)cc5)cc34)CC2)cc1` [Compound 192], the EC50 in assay [1] was 7080 nM; in assay [2] it was over 10000 nM.

`O=C(CO)N1CCC(c2c3cc(C(c4ccc(Cl)cc4)c4ccc(Cl)cc4)ccc3nn2C2CC2)CC1` [Compound 110]: the values for the EC50 in assay [1] and in assay [2] were 134 nM and over 10000 nM, respectively.

With `NC(=O)c1cccc(N2CCC(c3c4cc(C(c5ccc(Cl)cc5)c5ccc(Cl)cc5)ccc4nn3C3CC3)CC2)c1` [Compound 184, 3-(4-(5-(bis(4-chlorophenyl)methyl)-2-cyclopropyl-2H-indazol-3-yl)piperidin-1-yl)benzamide], the values for the EC50 in assay [1] and in assay [2] were 26 nM and over 10000 nM, respectively.

Turning to `O=C(O)c1ccc(C(=O)N2CCC(c3c4cc(C(c5ccc(Cl)cc5)c5ccc(Cl)cc5)ccc4nn3C3CC3)CC2)cc1` [Compound 113], the EC50 was 4240 nM in assay [1] and over 10000 nM in assay [2].

Regarding `Cn1nc(C2CCN(S(=O)(=O)c3ccc(C(N)=O)cc3)CC2)c2cc(C(c3ccc(Cl)cc3)c3ccc(Cl)cc3)ccc21` [Compound 64], the EC50 in assay [1] is 24 nM; in assay [2], over 10000 nM.

For the molecule `O=C(O)c1csc(CN2CCC(c3nn(C4CC4)c4ccc(C(c5ccc(Cl)cc5)c5ccc(Cl)cc5)cc34)CC2)c1` [Compound 227], the concentration giving a half-maximal response (EC50) in assay [1] was 84 nM; in assay [2], over 10000 nM.

With `O=C(O)c1ccc(S(=O)(=O)N2CCC(c3c4cc(C(c5ccc(Cl)cc5)c5ccc(Cl)cc5)ccc4nn3C3CC3)CC2)cc1` [Compound 117, 4-(4-(5-(bis(4-chlorophenyl)methyl)-2-cyclopropyl-2H-indazol-3-yl)piperidin-1-ylsulfonyl)benzoic acid], the EC50 in assay [1] came to 9 nM; in assay [2] it was 1550 nM.

As to `NC(=O)Cn1nc(N2CCN(S(=O)(=O)C(F)(F)F)CC2)c2cc(C(c3ccc(Cl)cc3)c3ccc(Cl)cc3)ccc21` [Compound 19], the EC50 in assay [1] was 84 nM; in assay [2], over 10000 nM.

Take `NC(=O)c1ccc(S(=O)(=O)N2CCC(c3nn(CCO)c4ccc(C(c5ccc(Cl)cc5)c5ccc(Cl)cc5)cc34)CC2)cc1` [Compound 69]: the EC50 in assay [1] was 26 nM; in assay [2], over 10000 nM.

Consider `O=S(=O)(N1CCN(c2nn(S(=O)(=O)C(F)(F)F)c3ccc(C(c4ccc(Cl)cc4)c4ccc(Cl)cc4)cc23)CC1)C(F)(F)F` [Compound 29], for which the results for the EC50 in assay [1] and in assay [2] were 1490 nM and over 10000 nM, respectively.

Consider `COc1ccc(S(=O)(=O)N2CCC(c3c4cc(C(c5ccc(Cl)cc5)c5ccc(Cl)cc5)ccc4nn3C3CC3)CC2)cc1C(N)=O` [Compound 158, 5-(4-(5-(bis(4-chlorophenyl)methyl)-2-cyclopropyl-2H-indazol-3-yl)piperidin-1-ylsulfonyl)-2-methoxybenzamide], for which the EC50 in assay [1] was 3 nM; in assay [2], over 10000 nM.

As to `O=C(O)c1cccc(CN2CCC(c3n[nH]c4ccc(C(c5ccc(Cl)cc5)c5ccc(Cl)cc5)cc34)CC2)c1` [Compound 225], the EC50 was found to be 56 nM in assay [1] and 3300 nM in assay [2].

On to `NC(=O)c1csc(CS(=O)(=O)N2CCC(c3nn(C4CC4)c4ccc(C(c5ccc(Cl)cc5)c5ccc(Cl)cc5)cc34)CC2)c1` [Compound 235], for which the results for the EC50 in assay [1] and in assay [2] were 22 nM and over 10000 nM, respectively.

In the case of `O=C(NCCO)c1ccc(-n2nc(C3CCN(S(=O)(=O)C(F)(F)F)CC3)c3cc(C(c4ccc(Cl)cc4)c4ccc(Cl)cc4)ccc32)cc1` [Compound 229], the EC50 in assay [1] was 37 nM; in assay [2], over 10000 nM.

For `COc1ccc(C(c2ccc(OC)cc2)c2ccc3[nH]nc(C4CCN(S(=O)(=O)C(F)(F)F)CC4)c3c2)cc1` [Compound 67], the EC50 is 2 nM in assay [1] and 5200 nM in assay [2].

Consider `NC(=O)c1ccccc1S(=O)(=O)N1CCC(c2nn(CCO)c3ccc(C(c4ccc(Cl)cc4)c4ccc(Cl)cc4)cc23)CC1` [Compound 70], for which the concentration for a half-maximal effect (EC50) was 428 nM in assay [1] and over 10000 nM in assay [2].

With `NC(=O)c1ccc(S(=O)(=O)N2CCC(Nc3n[nH]c4ccc(C(c5ccc(Cl)cc5)c5ccc(Cl)cc5)cc34)CC2)cc1` [Compound 120], the 50% effective concentration (EC50) is 50 nM in assay [1] and over 10000 nM in assay [2].

For `COC(=O)c1ccccc1S(=O)(=O)N1CCC(c2n[nH]c3ccc(C(c4ccc(Cl)cc4)c4ccc(Cl)cc4)cc23)CC1` [Compound 31], the EC50 in assay [1] came to 128 nM; in assay [2], 2340 nM.

In the case of `O=S(=O)(c1ccc(C(F)(F)F)cc1)N1CCC(c2n[nH]c3ccc(C(c4ccc(Cl)cc4)c4ccc(Cl)cc4)cc23)CC1` [Compound 32], the EC50 is 71 nM in assay [1] and over 10000 nM in assay [2].

For the molecule `NC(=O)c1ccc(S(=O)(=O)N2CCC(c3c4cc(C(c5ccc(Cl)cc5)c5ccc(Cl)cc5)ccc4nn3C3CC3)CC2)o1` [Compound 172, 5-(4-(5-(bis(4-chlorophenyl)methyl)-2-cyclopropyl-2H-indazol-3-yl)piperidin-1-ylsulfonyl)furan-2-carboxamide], the figures for the EC50 in assay [1] and in assay [2] were 3 nM and over 10000 nM, respectively.

In the case of `CNC(=O)c1ccc(S(=O)(=O)N2CCC(c3c4cc(C(c5ccc(Cl)cc5)c5ccc(Cl)cc5)ccc4nn3C3CC3)CC2)cc1Cl` [Compound 154, 4-(4-(5-(bis(4-chlorophenyl)methyl)-2-cyclopropyl-2H-indazol-3-yl)piperidin-1-ylsulfonyl)-2-chloro-N-methylbenzamide], the EC50 was 4 nM in assay [1] and over 10000 nM in assay [2].

As to `CC(C)S(=O)(=O)N1CCC(Nc2n[nH]c3ccc(C(c4ccc(Cl)cc4)c4ccc(Cl)cc4)cc23)CC1` [Compound 78], the EC50 in assay [1] is 179 nM; in assay [2], over 10000 nM.

On to `NC(=O)c1ccc(C(=O)N2CCC(c3nn(C4CC4)c4ccc(C(c5ccc(Cl)cc5)c5ccc(Cl)cc5)cc34)CC2)cc1` [Compound 104], for which the EC50 in assay [1] is 7 nM; in assay [2], over 10000 nM.

In the case of `O=C(O)c1cccc(CN2CCC(c3nn(C4CC4)c4ccc(C(c5ccccc5)c5ccc(Cl)cc5)cc34)CC2)c1` (centres unmarked) [Compound 245], the values for the EC50 in assay [1] and in assay [2] were 20 nM and over 10000 nM, respectively.

As to `CNC(=O)c1ccc(S(=O)(=O)N2CCC(c3c4cc(C(c5ccc(Cl)cc5)c5ccc(Cl)cc5)ccc4nn3C3CC3)CC2)cc1F` [Compound 176, 4-(4-(5-(bis(4-chlorophenyl)methyl)-2-cyclopropyl-2H-indazol-3-yl)piperidin-1-ylsulfonyl)-2-fluoro-N-methylbenzamide], the EC50 in assay [1] is 5 nM; in assay [2], over 10000 nM.
